Test results reported in ChEMBL document CHEMBL5131534, “Identification of 2-Pyridinylindole-Based Dual Antagonists of Toll-like Receptors 7 and 8 (TLR7/8)” (ACS Med Chem Lett, 2022).

What was measured:
Toll-like receptor 4 = Toll-like receptor 4 (Homo sapiens, UniProt O00206); assay: Antagonist activity at […] stimulated human TRL4 overexpressed in HEK293 cells assessed as inhibition of NF kappa B/Ap-1 activation preincubated with compound for 30 mins followed by […] stimulation measured after 22 hrs by SEAP reporter assay; type: cell-based
Toll-like receptor 4, sequence (O00206 whole entry): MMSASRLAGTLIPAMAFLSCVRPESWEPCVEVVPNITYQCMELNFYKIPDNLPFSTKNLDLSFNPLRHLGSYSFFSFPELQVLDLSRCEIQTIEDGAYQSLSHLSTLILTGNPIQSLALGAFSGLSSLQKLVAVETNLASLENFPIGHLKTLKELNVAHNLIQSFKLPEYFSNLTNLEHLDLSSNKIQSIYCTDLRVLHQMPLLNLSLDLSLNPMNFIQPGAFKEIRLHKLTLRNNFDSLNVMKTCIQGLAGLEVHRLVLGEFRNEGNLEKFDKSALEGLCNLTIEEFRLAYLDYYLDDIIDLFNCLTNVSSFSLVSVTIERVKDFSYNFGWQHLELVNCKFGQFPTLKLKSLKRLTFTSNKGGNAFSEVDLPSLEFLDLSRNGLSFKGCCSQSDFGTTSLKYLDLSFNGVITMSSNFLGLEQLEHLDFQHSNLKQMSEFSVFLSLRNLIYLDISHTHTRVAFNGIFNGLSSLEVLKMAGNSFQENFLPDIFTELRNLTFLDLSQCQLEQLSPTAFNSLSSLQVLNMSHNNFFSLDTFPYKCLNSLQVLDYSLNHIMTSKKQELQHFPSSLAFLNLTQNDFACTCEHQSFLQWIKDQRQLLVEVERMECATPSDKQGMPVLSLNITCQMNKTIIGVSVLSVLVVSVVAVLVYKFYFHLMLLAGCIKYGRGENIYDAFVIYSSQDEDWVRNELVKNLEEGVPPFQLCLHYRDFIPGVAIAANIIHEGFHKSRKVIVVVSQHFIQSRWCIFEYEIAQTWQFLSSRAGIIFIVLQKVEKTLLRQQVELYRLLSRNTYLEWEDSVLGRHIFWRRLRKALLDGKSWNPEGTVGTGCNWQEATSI

Mus musculus [1] = assay: Anti-inflammatory activity against MRL/Ipr Systemic lupus erythematosus mouse model assessed as inhibition of urinary NGAL at 20 mg/kg, po administered for 8 weeks and measured 24 hrs post final dose relative to control; type: functional; design: scale not given: the % may be the effect or the level left; conditions: time 1368 hrs
[2] = Tmax in mouse blood at 15 mg/kg, po; type: ADME, organism-based
Mus musculus [3] = assay: Anti-inflammatory activity against MRL/Ipr Systemic lupus erythematosus mouse model assessed as inhibition of urinary NGAL at 1 mg/kg, po administered for 8 weeks and measured 24 hrs post final dose relative to control; type: functional; design: scale not given: the % may be the effect or the level left; conditions: time 1368 hrs
Toll-like receptor 7 [4] = biological target: T1, Toll-like receptor 7 (Homo sapiens, UniProt Q9NYK1); assay: Antagonist activity at gardiquimod stimulated TRL7 in human PBMC cells assessed as inhibition of IL-6 production by ELISA analysis; type: cell-based
T1 sequence (Q9NYK1 whole entry): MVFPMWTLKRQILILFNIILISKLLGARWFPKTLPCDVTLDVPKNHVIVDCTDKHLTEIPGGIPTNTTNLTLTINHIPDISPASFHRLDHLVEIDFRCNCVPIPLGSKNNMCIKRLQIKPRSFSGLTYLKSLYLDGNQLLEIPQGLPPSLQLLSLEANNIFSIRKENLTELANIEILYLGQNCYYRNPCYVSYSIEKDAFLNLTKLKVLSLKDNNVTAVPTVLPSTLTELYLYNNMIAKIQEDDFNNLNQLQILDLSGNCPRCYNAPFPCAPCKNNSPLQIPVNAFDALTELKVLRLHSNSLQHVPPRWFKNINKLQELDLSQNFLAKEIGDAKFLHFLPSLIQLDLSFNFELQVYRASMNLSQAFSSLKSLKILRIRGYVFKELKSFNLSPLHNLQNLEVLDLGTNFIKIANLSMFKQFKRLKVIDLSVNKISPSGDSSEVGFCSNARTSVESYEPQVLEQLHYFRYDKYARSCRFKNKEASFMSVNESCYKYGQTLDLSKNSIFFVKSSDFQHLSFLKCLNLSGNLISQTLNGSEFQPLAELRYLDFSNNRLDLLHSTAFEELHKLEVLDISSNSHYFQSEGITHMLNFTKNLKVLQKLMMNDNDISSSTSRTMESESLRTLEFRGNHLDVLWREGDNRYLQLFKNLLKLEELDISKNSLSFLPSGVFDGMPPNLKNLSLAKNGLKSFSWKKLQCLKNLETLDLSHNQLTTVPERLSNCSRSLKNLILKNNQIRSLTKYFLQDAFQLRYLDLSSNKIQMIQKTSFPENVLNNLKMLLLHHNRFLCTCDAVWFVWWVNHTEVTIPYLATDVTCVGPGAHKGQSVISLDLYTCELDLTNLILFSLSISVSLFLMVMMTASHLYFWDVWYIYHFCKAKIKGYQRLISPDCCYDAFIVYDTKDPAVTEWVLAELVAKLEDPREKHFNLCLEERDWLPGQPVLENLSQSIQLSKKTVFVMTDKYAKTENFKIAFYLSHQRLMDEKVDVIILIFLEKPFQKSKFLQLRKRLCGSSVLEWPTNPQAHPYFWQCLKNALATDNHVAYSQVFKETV

[5] = In vivo antagonist activity at TRL7 in C57BL/6 mouse assessed as inhibition of gardiquimod stimulated IL-6 production at 0.05 mg/kg,po for 30 minutes and followed by gardiquimod addition measured after 90 mins by ELISA analysis relative to control; type: functional; design: scale not given: the % may be the effect or the level left; conditions: time 120 min, 2 h
Toll-like receptor 7 [6] = biological target: T1, Toll-like receptor 7; assay: Antagonist activity at gardiquimod stimulated TRL7 in human whole blood assessed as inhibition of IL-6 production by ELISA analysis; type: tissue-based
[7] = AUClast in mouse blood at 15 mg/kg, po; type: ADME, organism-based; design: time 0 - last, dose 15 mg/kg, route po
[8] = Plasma protein binding in rat assessed as free fraction; type: ADME, cell-free
Toll-like receptor 3 = biological target: T2, Toll-like receptor 3 (Homo sapiens, UniProt O15455); assay: Antagonist activity at […] stimulated human TRL3 overexpressed in HEK293 cells assessed as inhibition of NF kappa B/Ap-1 activation preincubated with compound for 30 mins followed by […] stimulation measured after 22 hrs by SEAP reporter assay; type: cell-based
T2 sequence (O15455 whole entry): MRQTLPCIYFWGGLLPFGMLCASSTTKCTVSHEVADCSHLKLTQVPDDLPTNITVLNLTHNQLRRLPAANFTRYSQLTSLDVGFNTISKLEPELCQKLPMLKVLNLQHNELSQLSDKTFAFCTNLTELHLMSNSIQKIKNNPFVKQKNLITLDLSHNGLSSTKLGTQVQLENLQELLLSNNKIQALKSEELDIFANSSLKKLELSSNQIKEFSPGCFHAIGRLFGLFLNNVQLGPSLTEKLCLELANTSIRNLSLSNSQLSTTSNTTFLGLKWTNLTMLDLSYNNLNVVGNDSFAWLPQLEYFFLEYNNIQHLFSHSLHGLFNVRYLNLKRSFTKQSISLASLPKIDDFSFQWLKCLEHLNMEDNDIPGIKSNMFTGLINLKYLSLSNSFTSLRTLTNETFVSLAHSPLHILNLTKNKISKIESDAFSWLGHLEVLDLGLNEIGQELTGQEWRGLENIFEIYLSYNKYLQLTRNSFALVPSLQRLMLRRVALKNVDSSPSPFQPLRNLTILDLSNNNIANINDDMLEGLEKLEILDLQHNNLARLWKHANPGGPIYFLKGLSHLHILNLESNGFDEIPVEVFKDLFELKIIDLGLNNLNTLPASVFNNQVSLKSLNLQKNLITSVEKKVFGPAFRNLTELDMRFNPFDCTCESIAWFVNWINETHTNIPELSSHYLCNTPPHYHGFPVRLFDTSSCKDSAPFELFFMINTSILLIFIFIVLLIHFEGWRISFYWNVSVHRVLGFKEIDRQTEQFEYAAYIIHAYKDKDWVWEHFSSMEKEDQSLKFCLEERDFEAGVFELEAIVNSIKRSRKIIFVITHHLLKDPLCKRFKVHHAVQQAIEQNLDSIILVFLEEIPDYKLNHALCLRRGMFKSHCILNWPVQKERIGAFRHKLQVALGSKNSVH

[9] = Plasma protein binding in mouse assessed as free fraction; type: ADME, cell-free
Mus musculus [10] = assay: Anti-inflammatory activity against MRL/Ipr Systemic lupus erythematosus mouse model assessed as inhibition of anti-Sm/RNP Ab titer at 5 mg/kg, po administered for 8 weeks and measured 24 hrs post final dose relative to control; type: functional; design: scale not given: the % may be the effect or the level left; conditions: time 1368 hrs
[11] = Toxicity in MRL/Ipr Systemic lupus erythematosus mouse model assessed as relative spleen weight at 5 mg/kg, po administered for 8 weeks and measured 24 hrs post final dose relative to control; type: organism-based; conditions: in vivo, 1368 h
[12] = Half life in mouse blood at 5 mg/kg, iv; type: ADME, organism-based

IC50 (Toll-like receptor 4): > 10000 nM | Tmax [2]: 5 h | IC50 (Toll-like receptor 7 [4]): 1 nM | IC50 (Toll-like receptor 7 [6]): 1.4 nM | AUC(0-t) [7]: 2.77 µM·h | fraction unbound [8]: 0.11 | IC50 (Toll-like receptor 3): > 10000 nM | fraction unbound [9]: 0.05 | half-life [12]: 9 h
Compound: Cc1cc(-c2[nH]c3ccc(C4CCNCC4)cc3c2C(C)C)cc(C)n1
Activity (Mus musculus [1]): 81% | Activity (Mus musculus [3]): 69% | Activity [5]: 66% | Activity (Mus musculus [10]): 74% | Activity [11]: 49%
